What was measured:
[1] = Cytotoxicity against human HCT116 cells assessed as cell growth at 10^-5 M after 48 hrs by SRB assay; assay type: functional; details: HCT-116, 48 h, read-out: Activity
A498 [2] = test: Growth inhibition of human A498 cells after 48 hrs by SRB assay; assay type: functional; details: A498, 48 h
[3] = Growth inhibition of human PC3 cells after 48 hrs by SRB assay; assay type: functional; details: PC-3, 48 h
T47D = test: Growth inhibition of human T47D cells at 10^-5 M after 48 hrs by SRB assay; assay type: functional; design: Activity: scale not given: the % may be the effect or the level left
[4] = Growth inhibition of human SF295 cells at 10^-5 M after 48 hrs by SRB assay; assay type: functional; details: SF-295, 48 h, read-out: GI
[5] = Growth inhibition of human HCT116 cells at 10^-5 M after 48 hrs by SRB assay; assay type: functional; details: HCT-116, 48 h, read-out: GI
NCI-H522 [6] = test: Cytotoxicity against human NCI-H522 cells assessed as cell growth at 10^-5 M after 48 hrs by SRB assay; assay type: functional; details: NCI-H522, 48 h, read-out: Activity
[7] = Inhibition of sheep brain tubulin polymerization by fluorescence assay; design: species or system Ovis aries
MCF7 [8] = test: Growth inhibition of human MCF7 cells after 48 hrs by SRB assay; assay type: functional; details: MCF7, 48 h
MDA-MB-435 [9] = test: Growth inhibition of human MDA-MB-435 cells at 10^-5 M after 48 hrs by SRB assay; assay type: functional; details: MDA-MB-435, 48 h, read-out: GI
NCI-H522 [10] = test: Growth inhibition of human NCI-H522 cells after 48 hrs by SRB assay; assay type: functional; details: NCI-H522, 48 h
Ovis aries = organism: Ovis aries; test: Inhibition of sheep brain tubulin polymerization at 100 uM by fluorescence assay
NCI-H522 [11] = test: Growth inhibition of human NCI-H522 cells at 10^-5 M after 48 hrs by SRB assay; assay type: functional; details: NCI-H522, 48 h, read-out: GI
Malme-3M = test: Growth inhibition of human MALME-3M cells at 10^-5 M after 48 hrs by SRB assay; assay type: functional; details: read-out: GI
[12] = Growth inhibition of human OVCAR3 cells after 48 hrs by SRB assay; assay type: functional; details: OVCAR-3, 48 h
[13] = Growth inhibition of human PC3 cells at 10^-5 M after 48 hrs by SRB assay; assay type: functional; details: PC-3, 48 h, read-out: GI
MDA-MB-435 [14] = test: Cytotoxicity against human MDA-MB-435 cells assessed as cell growth at 10^-5 M after 48 hrs by SRB assay; assay type: functional; details: MDA-MB-435, 48 h, read-out: Activity
[15] = Growth inhibition of human EKVX cells at 10^-5 M after 48 hrs by SRB assay; assay type: functional; details: read-out: GI
[16] = Growth inhibition of human MOLT4 cells at 10^-5 M after 48 hrs by SRB assay; assay type: functional; details: MOLT-4, 48 h, read-out: GI
NCI/ADR-RES = test: Growth inhibition of human NCI/ADR-RES cells after 48 hrs by SRB assay; assay type: functional
SNB-75 [17] = test: Growth inhibition of human SNB75 cells after 48 hrs by SRB assay; assay type: functional; details: SNB-75, 48 h
HL-60(TB) [18] = test: Growth inhibition of human HL-60(TB) cells after 48 hrs by SRB assay; assay type: functional; details: HL-60, 48 h
MCF7 [19] = test: Growth inhibition of human MCF7 cells at 10^-5 M after 48 hrs by SRB assay; assay type: functional; details: MCF7, 48 h, read-out: GI
SK-MEL-5 = test: Growth inhibition of human SK-MEL-5 cells after 48 hrs by SRB assay; assay type: functional; details: SK-MEL-5, 48 h
KM12 = test: Growth inhibition of human KM12 cells after 48 hrs by SRB assay; assay type: functional; details: KM12, 48 h
SNB-75 [20] = test: Growth inhibition of human SNB75 cells at 10^-5 M after 48 hrs by SRB assay; assay type: functional; details: SNB-75, 48 h, read-out: GI
CAKI-1 = test: Growth inhibition of human Caki1 cells at 10^-5 M after 48 hrs by SRB assay; assay type: functional; details: CAKI-1, 48 h, read-out: GI
MDA-MB-435 [21] = test: Growth inhibition of human MDA-MB-435 cells after 48 hrs by SRB assay; assay type: functional; details: MDA-MB-435, 48 h
SR = test: Growth inhibition of human SR cells after 48 hrs by SRB assay; assay type: functional
[22] = Growth inhibition of human HOP92 cells at 10^-5 M after 48 hrs by SRB assay; assay type: functional; details: HOP-92, 48 h, read-out: GI
[23] = Growth inhibition of human COLO205 cells after 48 hrs by SRB assay; assay type: functional; details: COLO 205, 48 h
HT-29 = test: Growth inhibition of human HT-29 cells after 48 hrs by SRB assay; assay type: functional; details: HT-29, 48 h
HL-60(TB) [24] = test: Growth inhibition of human HL-60(TB) cells at 10^-5 M after 48 hrs by SRB assay; assay type: functional; details: HL-60, 48 h, read-out: GI
MDA-MB-468 = test: Growth inhibition of human MDA-MB-468 cells after 48 hrs by SRB assay; assay type: functional; details: MDA-MB-468, 48 h
Tubulin = test: Inhibition of tubulin (unknown origin) polymerization; assay type: protein-complex assay, Homo sapiens
A498 [25] = test: Growth inhibition of human A498 cells at 10^-5 M after 48 hrs by SRB assay; assay type: functional; details: A498, 48 h, read-out: GI
[26] = Growth inhibition of human HCT15 cells at 10^-5 M after 48 hrs by SRB assay; assay type: functional; details: HCT-15, 48 h, read-out: GI
MOLT-4 = test: Cytotoxicity against human MOLT4 cells assessed as cell growth at 10^-5 M after 48 hrs by SRB assay; assay type: functional; details: MOLT-4, 48 h, read-out: Activity

CCOC(=O)c1cc(C(=O)c2cc(OC)c(OC)c(OC)c2)n2ccc(C)cc12
growth at 10 µM [1]: -58%
GI50 (A498 [2]): 272 nM
GI50 [3]: 976 nM
Activity (T47D): 83%
inhibition of growth at 10 µM [4]: 85%
inhibition of growth at 10 µM [5]: 100%
growth at 10 µM (NCI-H522 [6]): -9%
IC50 [7]: 28100 nM
GI50 (MCF7 [8]): 339 nM
inhibition of growth at 10 µM (MDA-MB-435 [9]): 100%
GI50 (NCI-H522 [10]): 585 nM
inhibition (Ovis aries): 72%
inhibition of growth at 10 µM (NCI-H522 [11]): 100%
inhibition of growth at 10 µM (Malme-3M): 74%
GI50 [12]: 343 nM
inhibition of growth at 10 µM [13]: 79%
growth at 10 µM (MDA-MB-435 [14]): -17%
inhibition of growth at 10 µM [15]: 50%
inhibition of growth at 10 µM [16]: 50%
GI50 (NCI/ADR-RES): 411 nM
GI50 (SNB-75 [17]): 324 nM
GI50 (HL-60(TB) [18]): 630 nM
inhibition of growth at 10 µM (MCF7 [19]): 88%
GI50 (SK-MEL-5): 411 nM
GI50 (KM12): 497 nM
inhibition of growth at 10 µM (SNB-75 [20]): 82%
inhibition of growth at 10 µM (CAKI-1): 66%
GI50 (MDA-MB-435 [21]): 234 nM
GI50 (SR): 310 nM
inhibition of growth at 10 µM [22]: 88%
GI50 [23]: 650 nM
GI50 (HT-29): 393 nM
inhibition of growth at 10 µM (HL-60(TB) [24]): 92%
GI50 (MDA-MB-468): 410 nM

COc1ccc(C(=O)c2cc(OC)c(OC)c(OC)c2)cc1O [PHENSTATIN]
IC50 [7]: 3430 nM
inhibition (Ovis aries): 99%
IC50 (Tubulin): 3400 nM

CCOC(=O)c1cc(C(=O)c2ccc(OC)c(OC)c2)n2ccc(OC)cc12
inhibition of growth at 10 µM (A498 [25]): 15%
inhibition of growth at 10 µM (T47D; Homo sapiens, T47D, 48 h, read-out: GI): 4%
inhibition of growth at 10 µM [4]: 3%
inhibition of growth at 10 µM [5]: 2%
inhibition of growth at 10 µM (MDA-MB-435 [9]): 2%
inhibition (Ovis aries): 51%
inhibition of growth at 10 µM (NCI-H522 [11]): 0%
inhibition of growth at 10 µM (Malme-3M): 12%
inhibition of growth at 10 µM [13]: 12%
inhibition of growth at 10 µM [15]: 0%
inhibition of growth at 10 µM [16]: 100%
inhibition of growth at 10 µM [26]: 7%
inhibition of growth at 10 µM (MCF7 [19]): 8%
inhibition of growth at 10 µM (SNB-75 [20]): 0%
growth at 10 µM (MOLT-4): -53%
inhibition of growth at 10 µM (CAKI-1): 3%

From ChEMBL document CHEMBL3352214, “Studies on indolizines. Evaluation of their biological properties as microtubule-interacting agents and as melanoma targeting compounds” (Eur J Med Chem, 2015)
